Measured values as given in patent US20080275075A1, “Medicine Comprising a Combination of an Acetylcholinesterase Inhibitor and a 5-Substituted-3-Oxadiazolyl-1,6-Naphthyridin-2(1H)-One Derivative” (priority 2004, published 2008).
Counter-ions that a name gives are not always drawn.

Assays:
[1] = system: spatial memory disorder induced by MK-801; experiment: Ameliorating effect on spatial memory disorder induced by MK-801 (Y-maze alternation behavior); assay type: in vivo, ddY male mice; conditions: for [MED (mg/kg)]: minimum effective dose, oral, 1 h before MK-801 0.1 mg/kg s.c., single administration
Experimental: (§1) The pharmacological experiment to investigate ameliorating effect on spatial memory disorder induced by scopolamine was carried out by systemic administration to animals according to the following method of Itoh, T. et al. In addition, the pharmacological experiment to investigate ameliorating effect on spatial memory disorder induced by MK-801 was carried out by systemic administration to animals according to the following method of Maurice, T. et al.
(§2) The spatial memory test using Y-maze apparatus which was selected for the pharmacological experiment is a test to utilize the behavioral property of animals to enter into a new arm, avoiding the arm that they entered into just before (alternation behavior). This method is often used in order to study spatial working memory.
This experiment was carried out according to the method of Maurice, T., et al. [Brain Res., 647, pp. 44-56 (1994)].
Ten to twelve ddY male mice weighing 26-36 g were used per one group in the experiment. A solution of MK-801 in physiological saline (concentration: 0.01 mg/ml) was subcutaneously administered to mice in a volume of 0.1 ml/10 g of body weight, i.e., 0.1 mg/kg. One hour before MK-801 administration, the groups of mice to which each test compound should be singly administered were orally treated with test compound A, test compound B or donepezil suspended in 0.5% tragacanth solution in a volume of 0.1 ml/10 g of body weight; and the animals in the amnesia control group and the vehicle control group orally received a 0.5% tragacanth solution in a volume of 0.1 ml/10 g of body weight. However, the vehicle control group was injected with physiological saline instead of MK-801. Twenty minutes after administration of MK-801, the mice were placed at the end of the arm A of the Y-maze apparatus which was composed of three black acrylic trapezoid arms (bottom width: 3 cm, height of side wall: 12 cm, width of opened ceiling: 10 cm, length: 40 cm), wherein said three arms were connected at the one end of each arm to form Y-shape and another ends were closed, and the three arms were differentiated by the names as A, B and C respectively, and allowed to search freely the maze for 8 minutes. When the mouse was checked to enter into an arm at the length of not less than 10 cm from the entrance of the arm, the name of the arm (A, B or C) was recorded. For the final data gotten, the ratio of the number of the alternation behavior to that of the entries (obtained by subtracting 2 from the total number of arm entries) was estimated as the rate of alternation behavior.
In statistical analysis, the rate of alternation behavior in the amnesia control group was compared with that in the vehicle control group by the Wilcoxon rank sum test and it was checked if a significant amnesia was induced in the amnesia control group. Next, the efficacy of the test compounds was evaluated in comparison between the amnesia control group and each group of test compound A, test compound B or donepezil by the nonparametric Dunnett multiple comparison test. The statistical calculation was carried out with SAS® System (Release 8.02, SAS Institute Inc.) and Preclinical Package Version 5.0 (SAS Institute Japan Ltd.).

[2] = system: spatial memory disorder induced by scopolamine; experiment: Ameliorating effect on spatial memory disorder induced by scopolamine (Y-maze alternation behavior); assay type: in vivo, ddY male mice; conditions: for Single administration [MED (mg/kg)]: minimum effective dose, 1 h before scopolamine 0.6 mg/kg s.c.; for Single administration [MED (mg/kg)] / # [MED (mg/kg)] Combined administration with donepezil: oral; for dose at which spatial memory disorder induced by scopolamine was significantly ameliorated: single oral administration; for # [MED (mg/kg)] Combined administration with donepezil: minimum effective dose of test compound, combined with donepezil 1 mg/kg
Experimental: as §1, §2
This experiment was carried out according to the method of Itoh, J., et al. [Eur. J. Pharmacol., 236, pp. 341-345 (1993)].
Ten to twelve ddY male mice weighing 28-34 g were used per one group in the experiment. A solution of scopolamine in physiological saline (concentration: 0.06 mg/ml) was subcutaneously administered to mice in a volume of 0.1 ml/10 g of body weight, i.e., 0.6 mg/kg. […] However, the vehicle control group was injected with physiological saline instead of scopolamine. Thirty minutes after the administration of scopolamine, the mice were placed at the end of the arm A of the Y-maze apparatus which was composed of three black acrylic trapezoid arms (bottom width: 3 cm, height of side wall: 12 cm, width of opened ceiling: 10 cm, length: 40 cm), wherein said three arms were connected at the one end of each arm to form Y-shape and another ends were closed, and the three arms were differentiated by the names as A, B and C respectively, and allowed to search freely the maze for 8 minutes. When the mouse was checked to enter into an arm at the length of not less than 10 cm from the entrance of the arm, the name of the arm (A, B or C) was recorded. For the final data gotten, the ratio of the number of the alternation behavior to that of the entries (obtained by subtracting 2 from the total number of arm entries) was estimated as the rate of alternation behavior.
In statistical analysis, the rate of alternation behavior in the amnesia control group was compared with that in the vehicle control group by the Wilcoxon rank sum test and it was checked if a significant amnesia was induced in the amnesia control group. Next, the efficacy of the test compounds in single use or in combination use of the test compounds with donepezil was evaluated in comparison between the amnesia control group and the single-administration groups using each one of the test compound A, the test compound B or donepezil; or in comparison between the amnesia control group and the combination groups of the test compound A or B and donepezil, by the nonparametric Dunnett multiple comparison test. The statistical calculation was carried out with SAS® System (Release 8.02, SAS Institute Inc.) and Preclinical Package Version 5.0 (SAS Institute Japan Ltd.).

In the case of `COc1cc2c(cc1OC)C(=O)C(CC1CCN(Cc3ccccc3)CC1)C2` (centres unmarked) [Donepezil, Donepezil hydrochloride, reference compound], the “[MED (mg/kg)]” value [1] is reported as over 15 mg/kg, the “amelioration of spatial memory disorder induced by MK-801” value ([1]; single oral administration) is reported as “not ameliorated” and the “amelioration of spatial memory disorder induced by scopolamine” value ([2]; 1 mg/kg, single administration) is reported as “not ameliorated”. The “Single administration [MED (mg/kg)]” value ([2]; single administration) was 10 mg/kg and the “dose at which spatial memory disorder induced by scopolamine was significantly ameliorated” value [2] was at least 10 mg/kg.
`C[C@]12N[C@H](Cc3ccccc31)c1ccccc12` [MK-801, dizocilipine maleate, reference compound] was tested, and the “rate of alternation behavior” value ([1]; amnesia control group, MK-801 0.1 mg/kg s.c., vehicle control group 65-73%) was 45-47%.
In the case of `COc1cccc(-c2nccc3[nH]c(=O)c(-c4noc(C)n4)cc23)c1` [Test compound A, 3-(5-methyl-1,2,4-oxadiazol-3-yl)-5-(3-methoxyphenyl)-1,6-naphthyridin-2(1H)-one], the “[MED (mg/kg)]” value [1] is reported as 0.3 mg/kg, the “dose at which spatial memory disorder induced by MK-801 was significantly ameliorated” value ([1]; single oral administration) is reported as at least 0.3 mg/kg and the “# [MED (mg/kg)] Combined administration with donepezil” value ([2]; scopolamine 0.6 mg/kg s.c.) is reported as 0.03 mg/kg. For the same molecule, the “Single administration [MED (mg/kg)]” value ([2]; single administration) was 0.3 mg/kg and the “dose at which spatial memory disorder induced by scopolamine was significantly ameliorated” value [2] was at least 0.3 mg/kg.
In the case of `O=c1[nH]c2ccnc(-c3ccsc3)c2cc1-c1nc(C2CC2)no1` [Test compound B, 3-(3-cyclopropyl-1,2,4-oxadiazol-5-yl)-5-(3-thienyl)-1,6-naphthyridin-2(1H)-one], the “[MED (mg/kg)]” value [1] is reported as 0.1 mg/kg, the “dose at which spatial memory disorder induced by MK-801 was significantly ameliorated” value ([1]; single oral administration) is reported as at least 0.1 mg/kg and the “# [MED (mg/kg)] Combined administration with donepezil” value ([2]; scopolamine 0.6 mg/kg s.c.) is reported as 0.01 mg/kg. The “Single administration [MED (mg/kg)]” value ([2]; single administration) was 0.1 mg/kg and the “dose at which spatial memory disorder induced by scopolamine was significantly ameliorated” value [2] was at least 0.1 mg/kg.
In the case of `CN1[C@@H]2C[C@@H](OC(=O)[C@H](CO)c3ccccc3)C[C@H]1[C@@H]1O[C@@H]12` [scopolamine, Scopolamine hydrobromide, reference compound], the “rate of alternation behavior” value ([2]; amnesia control group, scopolamine 0.6 mg/kg s.c., vehicle control group 63-70%) is reported as 39-46%.
